# Results: patent publication US20250009742A1 (priority 2021, published 2025)
# Legend:
# intracellular HBV DNA = experiment: Real-time PCR for intracellular HBV DNA in HepAD38 cells; type: cell-based; conditions: Hepatitis B virus, HePAD38, 65 h, 65 hours treatment
# [1] = Cell viability assay (EZ-Cytox), cytotoxicity; type: cell-based; conditions: human, HepAD38 cells; for viability at 65 h, 100 µM: read-out: Cytotoxicity % Livability (@100 μM)
# Protocol: HepAD38 cells were cultured for 2 days in Dulbecco's Modified Eagle's medium (Welgene, LM001-05) supplemented with 10% FBS without tetracycline. […] After 65 hours of treatment, viability was measured using EZ-Cytox cell viability assay kit (Daeil Lab Service) according to the manufacturer's instructions. The absorbance was measured at 450 nm using a spectrophotometer (Spark, Tecan).
Structure (SMILES),IC50 (intracellular HBV DNA) [nM],CC50 at 65 h [1] [nM],"viability at 65 h, 100 µM [1] [%]"
"COc1cc(N(Cc2cc(C(F)F)[nH]n2)C(=O)Nc2ccc(F)c(C(F)F)c2)cnn1 [Example 201, 1-((5-(difluoromethyl)-1H-pyrazol-3-yl)methyl)-3-(3-(difluoromethyl)-4-fluorophenyl)-1-(6-methoxypyridazin-4-yl)urea]",28,> 100000,107
"COCCc1c(CN(C(=O)Nc2ccc(F)c(Cl)c2)c2ccc(OC)nc2)n[nH]c1C(F)F [Example 88, 3-(3-chloro-4-fluorophenyl)-1-((5-(difluoromethyl)-4-(2-methoxyethyl)-1H-pyrazol-3-yl)methyl)-1-(6-methoxypyridin-3-yl)urea]",> 1100,> 100000,74.5
"N#Cc1ccc(N(Cc2n[nH]c3c2CCOC3)C(=O)Nc2ccc(F)c(Cl)c2)cn1 [Example 127, 3-(3-chloro-4-fluorophenyl)-1-(6-cyanopyridin-3-yl)-1-((1,4,5,7-tetrahydropyrano[3,4-c]pyrazol-3-yl)methyl)urea]",510,> 100000,95
"O=C(Nc1ccc(F)c(Cl)c1)N(Cc1n[nH]c2c1CCCO2)c1cc[nH]n1 [Example 135, 3-(3-chloro-4-fluorophenyl)-1-(1H-pyrazol-3-yl)-1-((1,4,5,6-tetrahydropyrano[2,3-c]pyrazol-3-yl)methyl)urea]",200,> 100000,
"COC12CC(N(Cc3cc(C(F)(F)F)[nH]n3)C(=O)Nc3cccc(C(F)F)c3)(C1)C2 [Example 181, 3-(3-(difluoromethyl)phenyl)-1-(3-methoxybicyclo[1.1.1]pentan-1-yl)-1-((5-(trifluoromethyl)-1H-pyrazol-3-yl)methyl)urea]",130,> 100000,64.9
"N#Cc1cc(N(Cc2n[nH]c3c2CCOC3)C(=O)Nc2ccc(F)c(Cl)c2)ccn1 [Example 128, 3-(3-chloro-4-fluorophenyl)-1-(2-cyanopyridin-4-yl)-1-((1,4,5,7-tetrahydropyrano[3,4-c]pyrazol-3-yl)methyl)urea]",340,> 100000,65.9
"COc1cncc(N(Cc2n[nH]c3c2COCC3)C(=O)Nc2ccc(F)c(Cl)c2)c1 [Example 75, 3-(3-chloro-4-fluorophenyl)-1-(5-methoxypyridin-3-yl)-1-((1,4,6,7-tetrahydropyrano[4,3-c]pyrazol-3-yl)methyl)urea]",36,> 100000,92.1
"COc1ncc(N(Cc2cc(C(F)(F)F)[nH]n2)C(=O)Nc2ccc(F)c(C#N)c2)cn1 [Example 154, 3-(3-cyano-4-fluorophenyl)-1-(2-methoxypyrimidin-5-yl)-1-((5-(trifluoromethyl)-1H-pyrazol-3-yl)methyl)urea]",13,> 100000,73
"COc1ncc(N(Cc2cc(C(F)(F)F)[nH]n2)C(=O)Nc2ccc(C#N)c(C(F)F)c2)cn1 [Example 152, 3-(4-cyano-3-(difluoromethyl)phenyl)-1-(2-methoxypyrimidin-5-yl)-1-((5-(trifluoromethyl)-1H-pyrazol-3-yl)methyl)urea]",26,> 100000,82.7
"COc1ncc(N(Cc2n[nH]c(C(F)(F)F)c2Br)C(=O)Nc2ccc(F)c(C(F)F)c2)cn1 [Example 194, 1-((4-bromo-5-(trifluoromethyl)-1H-pyrazol-3-yl)methyl)-3-(3-(difluoromethyl)-4-fluorophenyl)-1-(2-methoxypyrimidin-5-yl)urea]",21,> 100000,
"COc1ncc(N(Cc2cc(C#N)[nH]n2)C(=O)Nc2cc(F)c(F)c(F)c2)cn1 [Example 223, 1-((5-cyano-1H-pyrazol-3-yl)methyl)-1-(2-methoxypyrimidin-5-yl)-3-(3,4,5-trifluorophenyl)urea]",70,> 100000,87.5
"COCc1c(CN(C(=O)Nc2ccc(F)c(Cl)c2)c2ccc(OC)nc2)n[nH]c1C(F)F [Example 82, 3-(3-chloro-4-fluorophenyl)-1-((5-(difluoromethyl)-4-(methoxymethyl)-1H-pyrazol-3-yl)methyl)-1-(6-methoxypyridin-3-yl)urea]",> 1100,> 100000,85.8
"COc1ncc(N(Cc2cc(C#N)[nH]n2)C(=O)Nc2ccc(F)c(C(F)F)n2)cn1 [Example 212, 1-((5-cyano-1H-pyrazol-3-yl)methyl)-3-(6-(difluoromethyl)-5-fluoropyridin-2-yl)-1-(2-methoxypyrimidin-5-yl)urea]",210,> 100000,99.4
"COc1ncc(N(Cc2n[nH]c(C(F)F)c2Br)C(=O)Nc2ccc(F)c(C(F)F)c2)cn1 [Example 197, 1-((4-bromo-5-(difluoromethyl)-1H-pyrazol-3-yl)methyl)-3-(3-(difluoromethyl)-4-fluorophenyl)-1-(2-methoxypyrimidin-5-yl)urea]",19,79100,11.5
"COc1ncc(N(Cc2cc(C(F)(F)F)[nH]n2)C(=O)Nc2ccc(F)c(Cl)c2)c(C)n1 [Example 28, 3-(3-chloro-4-fluorophenyl)-1-(2-methoxy-4-methylpyrimidin-5-yl)-1-((5-(trifluoromethyl)-1H-pyrazol-3-yl)methyl)urea]",60,47200,7
"CC(C)(O)c1cc(N(Cc2n[nH]c3c2CCOC3)C(=O)Nc2ccc(F)c(Cl)c2)ccn1 [Example 112, 3-(3-chloro-4-fluorophenyl)-1-(2-(2-hydroxypropan-2-yl)pyridin-4-yl)-1-((1,4,5,7-tetrahydropyrano[3,4-c]pyrazol-3-yl)methyl)urea]",> 1100,> 66000,
"COc1ncc(N(Cc2cc(C(F)(F)F)[nH]n2)C(=O)Nc2cc(F)c(F)c(Cl)n2)cn1 [Example 13, 3-(6-chloro-4,5-difluoropyridin-2-yl)-1-(2-methoxypyrimidin-5-yl)-1-((5-(trifluoromethyl)-1H-pyrazol-3-yl)methyl)urea]",210,> 100000,100
"COc1ncc(N(Cc2n[nH]c(C(F)(F)F)c2CCO)C(=O)Nc2ccc(F)c(C(F)F)c2)cn1 [Example 193, 3-(3-(difluoromethyl)-4-fluorophenyl)-1-((4-(2-hydroxyethyl)-5-(trifluoromethyl)-1H-pyrazol-3-yl)methyl)-1-(2-methoxypyrimidin-5-yl)urea]",180,> 100000,
"COc1ccc(N(Cc2cc(C(F)F)[nH]n2)C(=O)Nc2ccc(F)c(Cl)c2)nn1 [Example 97, 3-(3-chloro-4-fluorophenyl)-1-((5-(difluoromethyl)-1H-pyrazol-3-yl)methyl)-1-(6-methoxypyridazin-3-yl)urea]",> 1100,> 100000,86.2
"COc1nc(C)c(N(Cc2cc(C(F)(F)F)[nH]n2)C(=O)Nc2ccc(F)c(Cl)c2)c(C)n1 [Example 30, 3-(3-chloro-4-fluorophenyl)-1-(2-methoxy-4,6-dimethylpyrimidin-5-yl)-1-((5-(trifluoromethyl)-1H-pyrazol-3-yl)methyl)urea]",> 1100,> 100000,52.4
"COc1ncc(N(Cc2cc(C#N)[nH]n2)C(=O)Nc2ccc(F)c(C(F)(F)F)c2)cn1 [Example 215, 1-((5-cyano-1H-pyrazol-3-yl)methyl)-3-(4-fluoro-3-(trifluoromethyl)phenyl)-1-(2-methoxypyrimidin-5-yl)urea]",20,> 100000,67
"COc1cc(N(Cc2n[nH]c3c2COCC3)C(=O)Nc2ccc(F)c(Cl)c2)ccn1 [Example 73, 3-(3-chloro-4-fluorophenyl)-1-(2-methoxypyridin-4-yl)-1-((1,4,6,7-tetrahydropyrano[4,3-c]pyrazol-3-yl)methyl)urea]",19,> 100000,96.6
"COc1cc(N(Cc2n[nH]c3c2COC3)C(=O)Nc2ccc(F)c(Cl)c2)ccn1 [Example 70, 3-(3-chloro-4-fluorophenyl)-1-((4,6-dihydro-1H-furo[3,4-c]pyrazol-3-yl)methyl)-1-(2-methoxypyridin-4-yl)urea]",9,> 100000,98
"COc1ccc(N(Cc2nn(C)c3c2COCC3)C(=O)Nc2ccc(F)c(Cl)c2)cc1 [Example 39, 3-(3-chloro-4-fluorophenyl)-1-(4-methoxyphenyl)-1-((1-methyl-1,4,6,7-tetrahydropyrano[4,3-c]pyrazol-3-yl)methyl)urea]",330,> 100000,96
"COc1ncc(N(Cc2cc(C(F)(F)F)[nH]n2)C(=O)Nc2ccc(F)c(Cl)c2)cn1 [Example 80, 3-(3-chloro-4-fluorophenyl)-1-(2-methoxypyrimidin-5-yl)-1-((5-(trifluoromethyl)-1H-pyrazol-3-yl)methyl)urea]",19,88400,21.4
"COc1cc(N(Cc2cc(C(F)(F)F)[nH]n2)C(=O)Nc2ccc(F)c(Cl)c2)cnc1C#N [Example 118, 3-(3-chloro-4-fluorophenyl)-1-(6-cyano-5-methoxypyridin-3-yl)-1-((5-(trifluoromethyl)-1H-pyrazol-3-yl)methyl)urea]",> 1100,< 50000,31.3
"COc1ncc(N(Cc2cc(C(F)(F)F)[nH]n2)C(=O)Nc2ccc(F)c(Cl)c2)cc1C#N [Example 119, 3-(3-chloro-4-fluorophenyl)-1-(5-cyano-6-methoxypyridin-3-yl)-1-((5-(trifluoromethyl)-1H-pyrazol-3-yl)methyl)urea]",320,< 50000,18.8
